In one assay the test system is T. brucei PF. As to the kind of experiment: Toxicity (EC50, cell viability) in procyclic form T. brucei. The class given is cell-based. Particulars: Trypanosoma brucei, live cells, 72 h incubation, footnote a. An excerpt:
(§1) Fig 1 Labelling and detection of B-THP-T target(s). (A) Structures of chamuvarinin and simplified analogues thereof as probes used in this study and their respective toxicity in selected cell lines. Bi-functional compound 3 contains a diazirine (blue) to cross-link the compound to its target and an alkyne handle (red) to which an azide-containing reporter probe can be added. Mono-functional compound 2 contains the diazirine to cross-link to its target but lacks the alkyne handle and cannot be appended with an azide reporter probe. Lead B-THP-T, compound 1, lacks both diazirine and alkyne. The additional functional groups on compounds 2 and 3 are minor alterations, which have little effect on inhibitor potency. (B) Overview of the in vivo pulse-chase photo-affinity labelling procedure. B-THP-T were incubated with live PF T. brucei cells and trafficked to their targets. Following UV-irradiation, only compounds containing a diazirine (i.e. compounds 2 and 3) could cross-link with target proteins. The subsequent “click reaction” appended the conjugated B-THP-T with a reporter probe as long as an alkyne handle was present (i.e. on compound 3). Refer to the experimental section for details. (C) Detection of Cy5.5-tagged proteins following photo-affinity labelling. Proteins were separated by SDS-PAGE and conjugated Cy5.5 was detected at 700 nm. Lanes 1–3 correspond to usage of compounds 1–3 respectively. Several proteins in lane 3 were conjugated with Cy5.5 via labelling with bi-functional compound 3. […]
The potency of lead B-THP-T, compound 1, was determined against oxidative phosphorylation in dose-response assays in digitonin-permeabilised PF T. brucei.
Supplementary file pntd.0005886.s001.tiff: S1 Fig Dose-response of B-THP-T compounds in PF T. brucei. EC50 values were determined for compounds 1–3 in PF T. brucei. […]

A further assay has as its system T. brucei BSF. The assay can be described thus: Toxicity (EC50) in bloodstream form T. brucei. The class given is cell-based, Trypanosoma brucei.
Text: as §1

Assay [1] concerns cellular ATP production in PF T. brucei. The assay can be described thus: ATP monitoring in live PF cells (proline as sole carbon source, bioluminescence). It is filed as cell-based, Trypanosoma brucei. Particulars: 2 h, normalised to no inhibitor control. Here is the method:
We first set out to determine if B-THP-T compounds affected cellular ATP levels. PF T. brucei were incubated in buffered PBS with/without proline as the sole carbon source and various inhibitors for 2 h. Cells were harvested and their ATP content was determined by bioluminescence assay. Two ETC inhibitors were used as positive control: malonate is a competitive inhibitor of mitochondrial complex II and prevents the […] of succinate to fumarate and entry of electrons to the ETC; and antimycin A (AA) is a mitochondrial complex III inhibitor, which prevents the transfer of electrons to cytochrome c and ubiquinone recycling. […] Compound 1 inhibited ATP production in a dose-response manner to similar levels (by 55 ± 6%), supporting the hypothesis from pull-down data that its target is involved in the ATP production pathway from proline.
Fig 4 B-THP-Ts decrease cellular ATP levels. PF T. brucei cells were incubated in buffered PBS with/without proline (as sole carbon source) and various inhibitors (concentrations indicated) incubated for 2 h, after which cells were harvested and cellular ATP levels were monitored by bioluminescence assay. Key: NS, no substrate; NI, no inhibitor control; Malonate (complex II inhibitor) AA, antimycin A (AA, complex III inhibitor). Background relative light units (RLU) were subtracted from measurements and % ATP production normalised to the no inhibitor control. Data were averaged from two independent experiments, each performed in duplicate (n = 4). Error bars show standard deviations. […]
Effects of compounds on proline metabolism were determined using a methodology adapted from Podolec et al. Briefly, glucose-free-conditioned PF T. brucei cells were washed into buffered PBS and incubated in 200 μl volumes with inhibitors for 10 min. […] Supernatants containing metabolic end-products and citrate standard were analysed to evaluate effects on proline metabolism (see below), while the ATP content of cells was determined as follows. […] ATP content was determined as above.

In a further assay the test system is Vero. The assay can be described thus: Toxicity (EC50) in Vero cells. It is filed as cell-based. Particulars: Chlorocebus sabaeus, footnote b, read-out: EC50 values Mammal Vero. An excerpt: Fig 1 Labelling and detection of B-THP-T target(s). (A) Structures of chamuvarinin and simplified analogues thereof as probes used in this study and their respective toxicity in selected cell lines. Bi-functional compound 3 contains a diazirine (blue) to cross-link the compound to its target and an alkyne handle (red) to which an azide-containing reporter probe can be added. Mono-functional compound 2 contains the diazirine to cross-link to its target but lacks the alkyne handle and cannot be appended with an azide reporter probe. Lead B-THP-T, compound 1, lacks both diazirine and alkyne. The additional functional groups on compounds 2 and 3 are minor alterations, which have little effect on inhibitor potency. (B) Overview of the in vivo pulse-chase photo-affinity labelling procedure. B-THP-T were incubated with live PF T. brucei cells and trafficked to their targets. Following UV-irradiation, only compounds containing a diazirine (i.e. compounds 2 and 3) could cross-link with target proteins. The subsequent “click reaction” appended the conjugated B-THP-T with a reporter probe as long as an alkyne handle was present (i.e. on compound 3). Refer to the experimental section for details. (C) Detection of Cy5.5-tagged proteins following photo-affinity labelling. Proteins were separated by SDS-PAGE and conjugated Cy5.5 was detected at 700 nm. […]

Experimental findings from paper PMC5608556, “Photo-affinity labelling and biochemical analyses identify the target of trypanocidal simplified natural product analogues” (PLoS Neglected Tropical Diseases, 2017) are described below.

What is called EC50 is the midpoint of the concentration-response curve.

In the case of `CCCCCC[C@H]1CCC[C@@H](Cn2cc([C@@H]3CCC[C@H](CCCCO)O3)nn2)O1` [Compound 1], in the assay on T. brucei PF, it took 8.4 µM to reach a half-maximal effect (EC50). Also, in the assay with T. brucei BSF (from EC50 values of Fig 1), the “Selectivity towards T. brucei over mammalian HeLa cells” value was “only modest selectivity”. For the same molecule, the “Inhibition of cellular ATP production” value in assay [1] was 55 ± 6%.

Regarding `C#CCNC(=O)CCC[C@H]1CC2(C[C@@H](Cn3cc([C@@H]4CCC[C@H](CCCCOCc5ccccc5)O4)nn3)O1)N=N2` [Compound 3], the EC50 with T. brucei PF was found to be 16.1 ± 0.6 µM; in the assay with T. brucei BSF (Trypanosoma brucei, bloodstream form, footnote b), 13 ± 1 µM; in the assay on Vero, 21.3 ± 2 µM.

With `CCCCCC[C@H]1C(=O)O[C@H](C)[C@H](NC(=O)c2cccc(NC=O)c2O)C(=O)O[C@@H](C)[C@@H]1OC(=O)CC(C)C` [antimycin A], the “Inhibition of cellular ATP production” value in assay [1] is reported as 71 ± 9%.

On to `O=C(O)CC(=O)O` [malonate], for which the “Inhibition of cellular ATP production” value in assay [1] came to 62 ± 15%.
